Measurements reported in patent US20240409585A1, “MACROCYCLIC IMMUNOMODULATORS” (priority 2021, published 2024).
Numbered stars: 1 amine (or outer) side, 2 acyl side, 3 side chain; on linkers, the order of the positions; unused ones are H or OH. Bridge positions count the residues as written; N and C are the ends. Square brackets hold non-standard residues; d marks the D form. Peptide text beside a SMILES is read from it. * marks the point of attachment. ξ: configuration not given here. Ala(piperidin-4-yl) = O=C([C@H](CC1CCN([*:3])CC1)N[*:1])[*:2]; Phe(4-COOH) = N[C@@H](Cc1ccc(C(=O)O)cc1)C(=O)O; Bip = N[C@@H](Cc1ccc(-c2ccccc2)cc1)C(=O)O; Phe(3-CN) = N#Cc1cccc(C[C@H](N)C(=O)O)c1; Phe(4-CN) = N#Cc1ccc(C[C@H](N)C(=O)O)cc1; Phe(3-F) = N[C@@H](Cc1cccc(F)c1)C(=O)O; Phe(3-Me) = Cc1cccc(C[C@H](N)C(=O)O)c1; X34 = O=C([C@H](Cc1ccoc1)N[*:1])[*:2]; dBta = N[C@H](Cc1csc2ccccc12)C(=O)O; Val(3-OH) = CC(C)(O)[C@H](N)C(=O)O; 4Pal = N[C@@H](Cc1ccncc1)C(=O)O; Cha = N[C@@H](CC1CCCCC1)C(=O)O; Cit = NC(=O)NCCC[C@H](N)C(=O)O; Ile(3ξ) = CCC(C)[C@H](N)C(=O)O; Thr(3ξ) = CC(O)[C@H](N)C(=O)O; Carboxymethyl = O=C(O)C*; NMeA = CN[C@@H](C)C(=O)O; Orn = NCCC[C@H](N)C(=O)O; Dab = NCC[C@H](N)C(=O)O; Dap = NC[C@H](N)C(=O)O

The compounds below were run against T1, PE-labeled human PD-L1-Ig binding to Jurkat cell line over-expressing human PD-1 (Jurkat-PD-1) (Homo sapiens, UniProt Q15116) (assay: Jurkat-PD-1 Cell Binding High-Content Screening Assay (CBA): Method 1). Conditions: Jurkat-PD-1 cells, PE-labeled PD-L1-Ig; μM; read-out: CBA Method 1 μM.
T1 construct: expressed in transfected cells; host or cells: Jurkat
T1 sequence (Q15116 25-288): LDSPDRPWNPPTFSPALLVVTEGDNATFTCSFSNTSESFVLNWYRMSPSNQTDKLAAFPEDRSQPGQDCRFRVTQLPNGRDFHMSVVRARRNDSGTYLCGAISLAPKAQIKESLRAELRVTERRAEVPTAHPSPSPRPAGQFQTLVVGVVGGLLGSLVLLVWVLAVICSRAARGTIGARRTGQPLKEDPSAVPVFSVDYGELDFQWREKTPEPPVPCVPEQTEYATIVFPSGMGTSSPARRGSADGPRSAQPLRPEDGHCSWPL

IC50 [µM]	SMILES
0.45	CCC(C)[C@@H]1NC(=O)[C@H](Cc2ccc(-c3ccccc3)cc2)NC(=O)[C@H](C(C)C)NC(=O)[C@H](Cc2c[nH]c3ccccc23)NC(=O)[C@H](CC(=O)O)NC(=O)[C@H](Cc2ccc(O)cc2)NC(=O)[C@H](Cc2ccoc2)NC(=O)CSC[C@@H](C(=O)N2CCC[C@H]2C(N)=O)NC(=O)[C@H](C(C)O)NC(=O)[C@H](C(C)(C)O)NC(=O)[C@H](CC2CCCCC2)NC(=O)[C@H](CC(N)=O)NC(=O)[C@@H](CC(C)C)NC(=O)[C@H](C)N(C)C1=O (stereo partly drawn) [Example 5009] ({CH2CO}-[X34]YDWV[Bip][Ile(3ξ)][NMeA][dL]N[Cha][Val(3-OH)][Thr(3ξ)]CP-NH2; thioether N-14)

Same assay, conditions: Jurkat-hPD-1 cells, PE-labeled PD-L1-Ig 20 nM final; read-out: Jurkat HPDL1 PD1 IC50 (uM) (Method 1)

SMILES	IC50 [µM]
CC(C)C[C@@H]1NC(=O)[C@H](Cc2c[nH]c3ccccc23)NC(=O)[C@H](CC(=O)O)NC(=O)[C@H](Cc2ccc(C#N)cc2)NC(=O)[C@H](CC(N)=O)NC(=O)CSC[C@@H](C(=O)NCC(N)=O)NC(=O)[C@H](CO)NC(=O)[C@H](C(C)C)NC(=O)[C@H](CC(C)C)NC(=O)[C@H](CC(N)=O)NC(=O)[C@@H](CC(C)C)NC(=O)[C@H](C)N(C)C(=O)[C@H](C(C)C)NC(=O)[C@H](Cc2ccc(-c3ccccc3)cc2)NC1=O [Compound 1527] ({CH2CO}-N[Phe(4-CN)]DWL[Bip]V[NMeA][dL]NLVSCG-NH2; thioether N-14)	0.01
CC(C)C[C@@H]1NC(=O)[C@H](CCN)NC(=O)[C@@H](CC(C)C)NC(=O)[C@H](C)N(C)C(=O)[C@H](CCCNC(=N)N)NC(=O)[C@H](Cc2ccc(-c3ccccc3)cc2)NC(=O)[C@H](C(C)C)NC(=O)[C@H](Cc2cccc(C#N)c2)NC(=O)[C@H](CC(=O)O)NC(=O)[C@H](Cc2ccc(C(=O)O)cc2)NC(=O)[C@H](CN)NC(=O)CSC[C@@H](C(=O)N[C@@H](C)C(N)=O)NC(=O)[C@H]([C@@H](C)O)NC(=O)[C@H](C(C)C)NC1=O [Compound 1461] ({CH2CO}-[Dap][Phe(4-COOH)]D[Phe(3-CN)]V[Bip]R[NMeA][dL][Dab]LVTCA-NH2; thioether N-14)	0.23
CCNC(=O)[C@H](CCN)NC(=O)[C@@H]1CSCC(=O)N[C@@H](Cc2ccncc2)C(=O)N[C@@H](Cc2cccc(C#N)c2)C(=O)N[C@@H](CC(=O)O)C(=O)N[C@@H](Cc2cccc(C)c2)C(=O)N[C@@H](Cc2cccc(F)c2)C(=O)N[C@@H](Cc2ccc(-c3ccccc3)cc2)C(=O)N[C@@H](Cc2ccc(OCC(=O)O)cc2)C(=O)N(C)[C@@H](C)C(=O)N[C@H](CC(C)C)C(=O)N[C@@H](CCN)C(=O)N[C@@H](CC2CCCCC2)C(=O)N[C@@H](C(C)(C)O)C(=O)N[C@@H](CO)C(=O)N1 [Compound 1843] ({CH2CO}-[4Pal][Phe(3-CN)]D[Phe(3-Me)][Phe(3-F)][Bip]Y(Carboxymethyl)[NMeA][dL][Dab][Cha][Val(3-OH)]SC[Dab]-NHEt; thioether N-14)	0.01
Cc1cccc(C[C@@H]2NC(=O)[C@H](CC(=O)O)NC(=O)[C@H](Cc3ccc(OCC(=O)O)cc3)NC(=O)[C@H]([C@@H](C)O)NC(=O)CSC[C@@H](C(N)=O)NC(=O)[C@H](CCC(=O)O)NC(=O)[C@H](C(C)C)NC(=O)[C@H](CC3CCCCC3)NC(=O)[C@H](CCN)NC(=O)[C@@H](CC(C)C)NC(=O)[C@H](C)N(C)C(=O)[C@H](Cc3ccc(OCC(=O)O)cc3)NC(=O)[C@H](Cc3ccc(-c4ccccc4)cc3)NC(=O)[C@H](Cc3ccc(OCC(=O)O)cc3)NC2=O)c1 [Compound 1673] ({CH2CO}-TY(Carboxymethyl)D[Phe(3-Me)]Y(Carboxymethyl)[Bip]Y(Carboxymethyl)[NMeA][dL][Dab][Cha]VEC-NH2; thioether N-14)	0.09
CCNC(=O)[C@H](CCN)NC(=O)[C@@H]1CSCC(=O)N[C@@H](Cc2ccncc2)C(=O)N[C@@H](Cc2ccc(OCC(=O)O)cc2)C(=O)N[C@@H](CC(=O)O)C(=O)N[C@@H](Cc2cccc(C)c2)C(=O)N[C@@H](Cc2cccc(F)c2)C(=O)N[C@@H](Cc2ccc(-c3ccccc3)cc2)C(=O)N[C@@H](C(C)C)C(=O)N(C)[C@@H](C)C(=O)N[C@H](CC(C)C)C(=O)N[C@@H](CCN)C(=O)N[C@@H](CC2CCCCC2)C(=O)N[C@@H](C(C)(C)O)C(=O)N[C@@H](CO)C(=O)N1 [Compound 1838] ({CH2CO}-[4Pal]Y(Carboxymethyl)D[Phe(3-Me)][Phe(3-F)][Bip]V[NMeA][dL][Dab][Cha][Val(3-OH)]SC[Dab]-NHEt; thioether N-14)	0.01
CC(C)C[C@@H]1NC(=O)[C@H](Cc2c[nH]c3ccccc23)NC(=O)[C@H](CC(=O)O)NC(=O)[C@H](Cc2ccc(O)cc2)NC(=O)[C@H](Cc2ccccc2)NC(=O)CSC[C@@H](C(=O)N[C@@H](C)C(N)=O)NC(=O)[C@H](CO)NC(=O)[C@H](C(C)C)NC(=O)[C@H](CC(C)C)NC(=O)[C@H](CC(N)=O)NC(=O)[C@@H](CCCNC(=N)N)NC(=O)[C@H](C)N(C)C(=O)[C@H](C(C)C)NC(=O)[C@H](Cc2ccc(-c3ccccc3)cc2)NC1=O [Compound 1804] ({CH2CO}-FYDWL[Bip]V[NMeA][dR]NLVSCA-NH2; thioether N-14)	0.21
CC(C)C[C@@H]1NC(=O)[C@H](CCCN)NC(=O)[C@@H](Cc2csc3ccccc23)NC(=O)[C@H](C)N(C)C(=O)[C@H](CCCNC(=N)N)NC(=O)[C@H](Cc2ccc(-c3ccccc3)cc2)NC(=O)[C@H](C(C)C)NC(=O)[C@H](Cc2c[nH]c3ccccc23)NC(=O)[C@H](CC(=O)O)NC(=O)[C@H](Cc2ccc(O)cc2)NC(=O)[C@H](Cc2ccccc2)NC(=O)CSC[C@@H](C(=O)N[C@@H](C)C(N)=O)NC(=O)[C@H]([C@@H](C)O)NC(=O)[C@H](C(C)C)NC1=O [Compound 1171] ({CH2CO}-FYDWV[Bip]R[NMeA][dBta][Orn]LVTCA-NH2; thioether N-14)	0.15
CC(C)C[C@@H]1NC(=O)[C@H](Cc2c[nH]c3ccccc23)NC(=O)[C@H](CC(=O)O)NC(=O)[C@H](Cc2ccc(O)cc2)NC(=O)[C@H](Cc2ccccc2)NC(=O)CSC[C@@H](C(=O)N[C@@H](C)C(N)=O)NC(=O)[C@H](CO)NC(=O)[C@H](C(C)C)NC(=O)[C@H](CC(C)C)NC(=O)[C@H](CCCCN)NC(=O)[C@@H](C)NC(=O)[C@H](C)N(C)C(=O)[C@H](CCC(=O)O)NC(=O)[C@H](Cc2ccc(-c3ccccc3)cc2)NC1=O [Compound 1767] ({CH2CO}-FYDWL[Bip]E[NMeA][dA]KLVSCA-NH2; thioether N-14)	0.04
CCNC(=O)[C@H](CCN)NC(=O)[C@@H]1CSCC(=O)N[C@@H](Cc2ccncc2)C(=O)N[C@@H](Cc2ccc(OCC(=O)O)cc2)C(=O)N[C@@H](CC(=O)O)C(=O)N[C@@H](Cc2cccc(C)c2)C(=O)N[C@@H](Cc2ccc(OCC(=O)O)cc2)C(=O)N[C@@H](Cc2ccc(-c3ccccc3)cc2)C(=O)N[C@@H](Cc2ccc(OCC(=O)O)cc2)C(=O)N(C)[C@@H](C)C(=O)N[C@H](CC(C)C)C(=O)N[C@@H](CCN)C(=O)N[C@@H](CC2CCCCC2)C(=O)N[C@@H](C(C)C)C(=O)N[C@@H]([C@@H](C)O)C(=O)N1 [Compound 1858] ({CH2CO}-[4Pal]Y(Carboxymethyl)D[Phe(3-Me)]Y(Carboxymethyl)[Bip]Y(Carboxymethyl)[NMeA][dL][Dab][Cha]VTC[Dab]-NHEt; thioether N-14)	0.01

More lines, now with the values ahead:

IC50 [µM]	SMILES
0.11	CC(C)C[C@@H]1NC(=O)[C@H](CC(N)=O)NC(=O)[C@@H](CC(C)C)NC(=O)[C@H](C)N(C)C(=O)[C@H](CCC(=O)O)NC(=O)[C@H](Cc2ccc(-c3ccccc3)cc2)NC(=O)[C@H](C(C)C)NC(=O)[C@H](Cc2c[nH]c3ccccc23)NC(=O)[C@H](CC(=O)O)NC(=O)[C@H](Cc2ccc(O)cc2)NC(=O)[C@H](Cc2ccncc2)NC(=O)CSC[C@@H](C(N)=O)NC(=O)[C@H]([C@@H](C)O)NC(=O)[C@H](C(C)C)NC1=O [Compound 1631] ({CH2CO}-[4Pal]YDWV[Bip]E[NMeA][dL]NLVTC-NH2; thioether N-14)
0.04	CC(C)C[C@@H]1NC(=O)[C@H](CCN)NC(=O)[C@@H](CC(C)C)NC(=O)[C@H](C)N(C)C(=O)[C@H](CCCNC(=N)N)NC(=O)[C@H](Cc2ccc(-c3ccccc3)cc2)NC(=O)[C@H](C(C)C)NC(=O)[C@H](Cc2c[nH]c3ccccc23)NC(=O)[C@H](CC(=O)O)NC(=O)[C@H](Cc2ccc(C(=O)O)cc2)NC(=O)[C@H](Cc2cnc[nH]2)NC(=O)CSC[C@@H](C(=O)N[C@@H](C)C(N)=O)NC(=O)[C@H]([C@@H](C)O)NC(=O)[C@H](C(C)C)NC1=O [Compound 1151] ({CH2CO}-H[Phe(4-COOH)]DWV[Bip]R[NMeA][dL][Dab]LVTCA-NH2; thioether N-14)
0.03	CC(C)C[C@@H]1NC(=O)[C@H](CCCN)NC(=O)[C@@H](CC(C)C)NC(=O)[C@H](C)N(C)C(=O)[C@H](CCCNC(N)=O)NC(=O)[C@H](Cc2ccc(-c3ccccc3)cc2)NC(=O)[C@H](C(C)C)NC(=O)[C@H](Cc2c[nH]c3ccccc23)NC(=O)[C@H](CC(=O)O)NC(=O)[C@H](Cc2ccc(O)cc2)NC(=O)[C@H](CC(N)=O)NC(=O)CSC[C@@H](C(=O)N[C@@H](C)C(N)=O)NC(=O)[C@H]([C@@H](C)O)NC(=O)[C@H](C(C)C)NC1=O [Compound 1234] ({CH2CO}-NYDWV[Bip][Cit][NMeA][dL][Orn]LVTCA-NH2; thioether N-14)
0.07	CC(C)C[C@@H]1NC(=O)[C@H](CCN)NC(=O)[C@@H](CC(C)C)NC(=O)[C@H](C)N(C)C(=O)[C@H](Cc2cnc[nH]2)NC(=O)[C@H](Cc2ccc(-c3ccccc3)cc2)NC(=O)[C@H](C(C)C)NC(=O)[C@H](Cc2c[nH]c3ccccc23)NC(=O)[C@H](CC(=O)O)NC(=O)[C@H](Cc2ccc(OCC(=O)O)cc2)NC(=O)[C@H](CN)NC(=O)CSC[C@@H](C(=O)N[C@@H](C)C(N)=O)NC(=O)[C@H]([C@@H](C)O)NC(=O)[C@H](C(C)C)NC1=O [Compound 1438] ({CH2CO}-[Dap]Y(Carboxymethyl)DWV[Bip]H[NMeA][dL][Dab]LVTCA-NH2; thioether N-14)
0.01	CCC(C)[C@@H]1NC(=O)[C@H](Cc2ccc(-c3ccccc3)cc2)NC(=O)[C@H](C(C)C)NC(=O)[C@H](Cc2c[nH]c3ccccc23)NC(=O)[C@H](CC(=O)O)NC(=O)[C@H](Cc2ccc(O)cc2)NC(=O)[C@H](CC2CCNCC2)NC(=O)CSC[C@@H](C(=O)N[C@@H](C)C(N)=O)NC(=O)[C@H](C(C)O)NC(=O)[C@H](C(C)C)NC(=O)[C@H](CC2CCCCC2)NC(=O)[C@H](CCN)NC(=O)[C@@H](CC(C)C)NC(=O)[C@H](C)N(C)C1=O (stereo partly drawn) [Compound 2043] ({CH2CO}-[Ala(piperidin-4-yl)]YDWV[Bip][Ile(3ξ)][NMeA][dL][Dab][Cha]V[Thr(3ξ)]CA-NH2; thioether N-14)
